Several values for one entry are separate records, joined by “and”; a condition that tells them apart may be missing. Equal entries are not always repeated. Activity calls are given as the source filed them.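 Rule for the calls: active = compounds giving half or more protection of infected cells from virus-caused growth loss, again on retest; inactive = the rest.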
Test system: CEM cells HIV-1 protection, formazan growth assay
Test: NCI AIDS Antiviral Assay
Settings: for IC50: measured here: growth of uninfected CEM cells
Method in brief: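 Human CEM cells, uninfected and HIV-1-infected, exposed to five drug concentrations; growth measured by soluble formazan assay and scored as percent protection from infection, with protecting compounds retested.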

Row | Structure (SMILES) | EC50 [µM] | IC50 | outcome
1 | O=C1CCCN(Cc2ccccc2)C(=O)N1 | > 1150 | > 1150 µM | 
2 | Cc1ccc(C=NC23CC4CC(CC(C4)C2)C3)cc1 | > 257 | > 257 µM | 
3 | Nn1c(-c2ccccc2)nc2ccc(Br)cc2c1=O |  |  | inactive
4 | Cc1ccc(NC(=O)CC2C(=O)Nc3ccccc3S2(=O)=O)cc1C (stereo unspecified) | > 10.5 | > 10.5 µM | 
5 | Cn1c2ccccc2c(=O)c2[nH]c3ccccc3c21 | > 200 | 36.3 µM | 
6 | C=C1C(=O)O[C@@H]2CC(C)C3C(OC(C)=O)CC(OC(C)=O)[C@@]3(C)C[C@H]12 (stereo partly specified) | > 102 | 5.37 µM | 
7 | CN1C(=O)/C(=c2\sc3nc4ccccc4n3c2=O)c2ccccc21 |  |  | inactive
8 | CN(C)C=C1C=CC=C1 | 166 | > 200 µM | 
9 | CC1CN=C(Cc2ccc(NC(=O)c3ccc(C(=O)Nc4ccc(CC5=NCC(C)N5)cc4)cc3)cc2)N1 (stereo unspecified) | > 200 | 110 µM | 
10 | CC(=O)C12C[C@](C#N)(N3CCCCCC3)C1C=Cc1ccccc12 (stereo partly specified) | > 200 | > 200 µM | 
11 | O=c1c2c(nc3n1CCC3)sc1c(O)c(Br)ccc12 | > 200 | 11 µM | 
12 | C#CCOCn1cnc2ncnc(N)c21 | > 1230 | > 1230 µM | 
13 | NS(=O)(=O)c1ccc(N=Nc2c(O)n(-c3ccccc3)n(-c3ccccc3)c2=O)cc1 | > 200 | 79.4 µM | 
14 | Cc1ccc(S(=O)(=O)SCC(=O)c2ccc(Br)cc2)cc1 | 6.92 | 93.3 µM | 
15 | Cc1cc(=O)[nH]c(NNC(C#N)c2ccco2)n1 (stereo unspecified) | > 380 | > 380 µM | 
16 | CCCC(C(=O)OC)C(=O)C(C)c1nc2n(c1O)C(=N)N=N2 (stereo unspecified) | > 200 | > 200 µM | 
17 | O=C1CC2C(=O)N(Cc3ccccc3)C1C(S(=O)(=O)c1ccccc1)C2S(=O)(=O)c1ccccc1 (stereo unspecified) |  |  | inactive
18 | CCN(CC)CCNC(=O)c1ccccc1Nc1c(Cl)cccc1Cl | > 200 | 27.5 µM | 
19 | COc1cc(/C=C2\C(=O)N(c3ccc(NC(C)=O)cc3)C(c3ccccc3)S2(=O)=O)cc(OC)c1OC (stereo unspecified) | > 200 | 87.1 µM | 
20 | C1CCCCC2(CCCCCCCCC3(CCC1)SCCS3)SCCS2 | > 200 | > 200 µM | 
21 | C[C@@H](c1ccccc1)N1CN(C(=O)OCc2ccccc2)C(C)(C)CC1=O | > 200 | 191 µM | 

Row | Structure (SMILES) | EC50 [µM] | IC50 | outcome
22 | CCc1c2c([nH]c(=S)c1C#N)CCC2 | 61.7 | > 200 µM | 
23 | N[C@@H]1c2c(Br)sc(N3CCOCC3)c2C(=O)[C@@H]1O | > 200 | 105 µM | 
24 | CC1=C(C(=O)Nc2ccc([N+](=O)[O-])cc2)C(c2cccc([N+](=O)[O-])c2)C(C(=O)Nc2ccc([N+](=O)[O-])cc2)=C(C)N1 | > 4.9 | > 4.9 µM | 
25 | O=[N+]([O-])c1ccc([As](=O)(O)O)c2ccccc12 | > 200 | > 200 µM | 
26 | O=[N+]([O-])C(/C=C(\Cl)[N+](=O)[O-])=C(Nc1ccccc1)Nc1ccccc1 | > 200 | 6.61 µM | 
27 | COc1ccc(CC2NC(=O)C3CCCN3C2=O)cc1 (stereo unspecified) | > 200 | > 200 µM | 
28 | C1CCOC2(CCC3(CC2)OCCCCO3)OC1 |  |  | inactive
29 | CCc1ccccc1NNc1cc(=O)[nH]c(=O)[nH]1 | > 200 | 27.5 µM | 
30 | O=Nc1ccc(O)cc1Cc1ccccc1 | > 200 | 3.63 µM | 
31 | CC(C)CCCC(C)[C@H]1CC[C@H]2[C@@H]3CC[C@H]4C[C@@H](CCC=C(c5cc(Cl)c(OCc6cccc([N+](=O)[O-])c6)c(C(=O)O)c5)c5cc(Cl)c(OCc6cccc([N+](=O)[O-])c6)c(C(=O)O)c5)CC[C@]4(C)[C@H]3CC[C@]12C (stereo partly specified) | 95.5 | > 200 µM | 
32 | N#CCN(Cc1ccccc1)[C@@H]1CCC[C@]1(O)C#Cc1ccc2c(c1)OCO2 | > 200 | 20.4 µM | 
33 | C/C(=C\C(=O)OCCCCCCCC(=O)Nc1c2sscc-2[nH]c1=O)C(O)[C@@H]1OCC(C/C=C/[C@@H](C)[C@H](C)O)[C@@H](O)[C@H]1O (stereo partly specified) | > 200 | 3.16 µM | 
34 | Cc1[nH]c(=O)[nH]c(=O)c1C(=O)O | > 200 | > 200 µM | 
35 | O=c1c2ccccc2oc2nc3ccc(Cl)cc3n12 | > 37.2 | > 37.2 µM | 
36 | CCOC(=O)c1sc2c(c1OC(=O)c1ccccc1)c(=O)n(-c1ccccc1)c(=S)n2-c1ccccc1 | > 200 | 132 µM | 
37 | Oc1ccc(C2Oc3cc(OC4OCC(O)C(O)C4O)cc(O)c3CC2O)cc1O (stereo unspecified) | > 200 | > 200 µM | 
38 | COc1ccc(Cn2c3ccc([N+](=O)[O-])cc3c(=O)n2Cc2ccccn2)cc1 | > 200 | > 200 µM | 
39 | COC(=O)C1=NN2c3ccccc3C(=O)OCCC2(C)C1 (stereo unspecified) | > 200 | > 200 µM | 
40 | CCN1/C(=C/C#C/C(C)=C\c2sc3ccc(Cl)cc3[n+]2CC)Sc2ccc(Cl)cc21 | > 20 | 2.24 µM | 
41 | CN1CC(=O)N(C)c2nc[nH]c2C1=O |  |  | inactive
42 | COc1cc(OC)c2c(c1)C(=O)c1cccc(O)c1C2=O |  |  | inactive

Row | Structure (SMILES) | EC50 [µM] | IC50 | outcome
43 | O=C(CC(=O)Nc1ccccc1)N/N=C/c1cc(N=Nc2ccc(Br)cc2)ccc1O | > 200 | 1.35 µM | 
44 | Cc1cc2c(=O)cc(-c3ccncc3)oc2c(C(N)=O)c1C | > 151 | 70.8 µM | 
45 | COC(=S)SSC(=S)NCCN(CCNC(=S)SSC(=S)OC)C(=S)SSC(=S)OC | > 257 | 209 µM | 
46 | COC(=O)C1=Nc2c(C)nn(-c3ccccc3)c2N=C(c2ccc([N+](=O)[O-])cc2)C1 | > 200 | > 200 µM | 
47 | CCCCCCCCCCCCCCCC(=O)OCC1OC(n2ccc(N)nc2=O)C(O)C1O (stereo unspecified) | > 0.2 | 0.0129 µM | 
48 | O=CN/C=C/c1cc(O)ccc1O | > 79.4 | 4.57 µM | 
49 | c1ccc([P+](Cc2nc3ccccc3[nH]2)(c2ccccc2)c2ccccc2)cc1 | > 200 | 38.9 µM and 46.8 µM | 
50 | COC(=O)c1c(C)c2c(c(C)c1O)OC(=O)c1c(C)cc(O)c(C=O)c1O2 | 186 | > 200 µM | 
51 | CC12CCC(=O)N1c1cc(Cl)ccc1N2 (stereo unspecified) | > 115 | > 115 µM | 
52 | CN(C)CCCNCc1cc(N(C)C)cc(CNCCCN(C)C)n1 | > 200 | > 200 µM | 
53 | CC(C)=NNc1cnnc2ccc([N+](=O)[O-])cc12 | > 200 | 70.8 µM | 
54 | O=C(C[n+]1ccccc1)c1ccc(O)c(O)c1 | 0.0631 | > 200 µM | 
55 | COc1cc2cc(C(=O)N3CC(CCl)c4ccc(N)cc43)[nH]c2c(OC)c1OC (stereo unspecified) | > 1.51 | 0.295 µM | 
56 | c1ccc(C2=Nc3ccccc3N=C(c3ccccc3)C2)cc1 | > 17.8 | > 17.8 µM | 
57 | COC(=O)C(C(=O)c1ccccc1)C(C(=O)C(=O)Nc1ccc(OC)cc1OC)C(=O)C(=O)c1ccc(C)cc1 (stereo unspecified) | > 457 | 407 µM | 
58 | O=[N+]([O-])c1ccc(SSc2ccc([N+](=O)[O-])cc2Cl)c(Cl)c1 | > 200 | 10 µM | 
59 | O=c1[nH]c(=O)n(CCOc2ccc(Cl)cc2)cc1Nc1ccccc1 | > 200 | 135 µM | 
60 | COc1ccc(I)c(CCC(C(=O)O)C2=CCC3(CC2)OCCO3)c1 (stereo unspecified) | > 145 | > 145 µM | 
61 | N#CCCN(C1=NN(C(=O)CC(=O)Nc2ccccc2Cl)C(c2ccccc2)C1)c1ccccc1Cl (stereo unspecified) | > 36.3 | > 36.3 µM | 
62 | C=C1C(=O)O[C@H]2C[C@@]3(COC(C)=O)C=COC=C(COC(=O)C(C)C)C3CC12 (stereo partly specified) | > 200 | 30.9 µM | 
63 | CCOc1ccc(/C=C2\NC(=S)N(/C=C3\C(=O)Oc4ccccc4C3=O)C2=O)cc1 |  |  | inactive

Row | Structure (SMILES) | EC50 [µM] | IC50 | outcome
64 | Oc1ccc(CCC2CCNc3ccccc32)cc1 (stereo unspecified) | > 5.01 | > 5.01 µM | 
65 | O=c1c2cncnc2sc2nccn12 | > 200 | > 200 µM | 
66 | CN(/N=C/c1ccnc2ccccc12)c1ccc([N+](=O)[O-])cc1[N+](=O)[O-] |  |  | inactive
67 | C[C@@]1(OC(=O)c2cc([N+](=O)[O-])cc([N+](=O)[O-])c2)C[C@@H]2CCCC[C@@H]21 |  |  | inactive
68 | [Au+].c1c[n-]cn1.c1ccc([PH+](c2ccccc2)c2ccccc2)cc1 | > 13.8 | 6.31 µM | 
69 | CN(C(=O)CC(=O)CP(=O)(c1ccccc1)c1ccccc1)c1ccccc1 | > 200 | 135 µM | 
70 | Clc1ccc(/C=N/Nc2nnc3c(n2)[nH]c2ccccc23)cc1 | > 200 | > 200 µM | 
71 | Cc1nc2ccc(Cl)cc2c(-n2ccnc2)c1CCn1ccnc1 | > 200 | 89.1 µM | 
72 | COC12OC3(C4OC41)C(C(=O)O[C@H]3CO[Si](C)(C)C(C)(C)C)C2S(=O)(=O)c1ccccc1 (stereo partly specified) | > 200 | 129 µM | 
73 | CCCCCCCCC(C)CCCCCCCCC(=O)OCC(COP(=O)([O-])OCC[N+](C)(C)C)OC(=O)CCCCCCCCC(C)CCCCCCCC (stereo unspecified) |  |  | inactive
74 | O=P(O)(O)OP(=O)(O)O.[NH-]CC[NH-].[NH-]CC[NH-].[Pd+2].[Pd+2] | > 200 | 102 µM | 
75 | CC1(c2ccc[n+](Cc3ccccc3)c2)OCCO1 | > 398 | 380 µM | 
76 | CCOc1ccc(/C=C(\Cl)c2ccc(OC)c(OC)c2)cc1 | > 200 | 191 µM | 
77 | COc1cc(N=Nc2ccc(C(=O)N(C)C)cc2)c(C)cc1N=Nc1c(O)c2ccccc2[nH]c1=O | > 200 | > 200 µM | 
78 | Cn1c(=O)c2sc3cc4c(cc3c2c2ccccc21)sc1c(=O)n(C)c2ccccc2c14 | > 100 | 61.7 µM | 
79 | CCCCCCCCCCCCCCCCOC1OC(CO)C(O)C(O)C1O (stereo unspecified) | > 9.33 | > 9.33 µM | 
80 | Cc1c2c(n(CCc3ccccc3)c1C)NN=C(C#N)S2(=O)=O | > 200 | > 200 µM | 
81 | O=C(ON=C1c2ccccc2C(Br)C(Br)c2ccccc21)c1cc([N+](=O)[O-])cc([N+](=O)[O-])c1 (stereo unspecified) | > 200 | 0.851 µM | 
82 | COc1ccc(CNc2cnc3cc(N)ccc3n2)cc1OC | > 115 | > 115 µM | 
83 | COc1cccc(CCNc2c(C#N)c3nc4ccccc4n3c3ccccc23)c1 | > 200 | 0.295 µM | 

Source: PubChem BioAssay AID179 (DTP/NCI, 2004)
